Results on one compound are retold here after US4267331A, “Process for the production of 2-substituted pyrido[4,3-b]-indoles” (Pfizer Inc., priority 1980, dated 1981).

Like-named read-outs stand apart in the source and are kept apart here. Bounds are passed on as bounds.

This test has as its system amphetamine-induced symptoms (cage movement behavior after d-amphetamine sulfate). Description: Antagonism of amphetamine stereotypy in rats. Particulars: Rattus norvegicus, sc, Part A. Type of test: in vivo. From the text: The tranquilizing agents of the present invention are characterized by relief of such schizophrenic manifestations in humans as hallucinations, hostility, suspiciousness, emotional or social withdrawal, anxiety, agitation and tension. A standard procedure of detecting and comparing tranquilizing activity of compounds in this series and for which there is an excellent correlation with human efficacy is the antagonism of amphetamine-induced symptoms in rat tests, as taught by A. Weissman, et al., J. Pharmacol. Exp. Ther., 151, 339 (1966) and by Quinton, et al., Nature, 200, 178, (1963).
Antagonism of Amphetamine Stereotypy in Rats Test Procedures and Results
The effects of the compounds of the present invention on prominent amphetamine-induced symptoms were studied in rats by a rating scale modeled after the one reported by Quinton and Halliwell, and Weissman. Groups of five rats were placed in a covered plastic cage measuring approximately 26 cm.×42 cm.×16 cm. After a brief period of acclimation in the cage, the rats in each group were treated subcutaneously (s.c.) with the test compound. They were then treated 1, 5 and 24 hrs. later with d-amphetamine sulfate, 5 mg./kg. intraperitoneally (i.p.). […] On the basis of dose-response data after amphetamine it was possible to determine the effective dose of the compound necessary to antagonize or block the characteristic amphetamine behavior of cage movement for fifty percent of the rats tested (ED50). The time of rating chosen coincides with the peak action of amphetamine which is 60-80 min. after treatment with this agent.
Employing the above-described procedure, the following 4a,9b-trans compounds were tested for their ability to block the behavior effects of amphetamine, the results being reported as the ED50 in mg./kg. at the indicated times: [drawing 33]

With `COc1ccc(C(O)CCCN2CCC3C(C2)c2cc(F)ccc2N3c2ccc(F)cc2)cc1` (stereo not drawn), the ED50 runs as follows: (1 h, s.c. per method b367, 1 Hr., read-out: ED50 (mg./kg.) 1 Hr., antagonism of amphetamine stereotypy) 0.1 to 0.32 mg/kg; (5 h, s.c. per method b367, 5 Hr., read-out: ED50 (mg./kg.) 5 Hr., antagonism of amphetamine stereotypy) less than 0.1 mg/kg; (24 h, s.c. per method b367, 24 Hrs., read-out: ED50 (mg./kg.) 24 Hrs., antagonism of amphetamine stereotypy) less than 0.32 mg/kg.
